Laboratory results taken from ChEMBL document CHEMBL1131865, “Aminomethyl-2,6-difluorophenols as a novel class of increased lipophilicity GABA(C) receptor antagonists” (Bioorg Med Chem Lett, 1999).
The source made the active and inactive calls. The rule behind the calls is not given here.

Legend:
[1] = Partition coefficient (logD); format: physicochemical; details: octanol/water
[2] = Dissociation constant was determined; format: physicochemical
GABA B receptor = GABA B receptor (Rattus norvegicus, UniProt O88871+Q9Z0U4); assay: Displacement of [3H]GABA from Gamma-aminobutyric acid type B receptor in rat brain membranes; format: cell membranes
Chain of GABA B receptor (Q9Z0U4 whole entry): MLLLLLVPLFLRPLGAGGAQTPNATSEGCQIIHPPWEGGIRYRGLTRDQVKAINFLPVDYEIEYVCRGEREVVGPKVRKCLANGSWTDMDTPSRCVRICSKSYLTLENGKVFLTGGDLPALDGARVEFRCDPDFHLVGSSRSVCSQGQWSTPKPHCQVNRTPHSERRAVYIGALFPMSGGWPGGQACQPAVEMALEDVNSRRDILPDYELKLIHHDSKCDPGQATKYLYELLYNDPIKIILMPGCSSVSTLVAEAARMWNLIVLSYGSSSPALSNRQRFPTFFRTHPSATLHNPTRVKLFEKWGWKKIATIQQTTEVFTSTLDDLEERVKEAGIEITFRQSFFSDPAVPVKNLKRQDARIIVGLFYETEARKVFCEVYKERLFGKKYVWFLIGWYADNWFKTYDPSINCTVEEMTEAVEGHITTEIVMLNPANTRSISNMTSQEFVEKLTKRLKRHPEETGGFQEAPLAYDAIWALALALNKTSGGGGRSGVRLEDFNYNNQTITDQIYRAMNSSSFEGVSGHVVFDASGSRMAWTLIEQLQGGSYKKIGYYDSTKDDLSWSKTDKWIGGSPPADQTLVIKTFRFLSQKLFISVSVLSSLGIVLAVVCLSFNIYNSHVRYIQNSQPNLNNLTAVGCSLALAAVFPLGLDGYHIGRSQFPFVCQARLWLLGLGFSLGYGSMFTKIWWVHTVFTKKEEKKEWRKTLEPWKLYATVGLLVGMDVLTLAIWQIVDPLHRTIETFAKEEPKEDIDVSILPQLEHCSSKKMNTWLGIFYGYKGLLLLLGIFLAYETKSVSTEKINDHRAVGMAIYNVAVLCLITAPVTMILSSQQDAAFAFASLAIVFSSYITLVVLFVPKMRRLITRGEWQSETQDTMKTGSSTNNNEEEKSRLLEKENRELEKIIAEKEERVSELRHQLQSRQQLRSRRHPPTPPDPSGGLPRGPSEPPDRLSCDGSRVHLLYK
Chain of GABA B receptor (O88871 whole entry): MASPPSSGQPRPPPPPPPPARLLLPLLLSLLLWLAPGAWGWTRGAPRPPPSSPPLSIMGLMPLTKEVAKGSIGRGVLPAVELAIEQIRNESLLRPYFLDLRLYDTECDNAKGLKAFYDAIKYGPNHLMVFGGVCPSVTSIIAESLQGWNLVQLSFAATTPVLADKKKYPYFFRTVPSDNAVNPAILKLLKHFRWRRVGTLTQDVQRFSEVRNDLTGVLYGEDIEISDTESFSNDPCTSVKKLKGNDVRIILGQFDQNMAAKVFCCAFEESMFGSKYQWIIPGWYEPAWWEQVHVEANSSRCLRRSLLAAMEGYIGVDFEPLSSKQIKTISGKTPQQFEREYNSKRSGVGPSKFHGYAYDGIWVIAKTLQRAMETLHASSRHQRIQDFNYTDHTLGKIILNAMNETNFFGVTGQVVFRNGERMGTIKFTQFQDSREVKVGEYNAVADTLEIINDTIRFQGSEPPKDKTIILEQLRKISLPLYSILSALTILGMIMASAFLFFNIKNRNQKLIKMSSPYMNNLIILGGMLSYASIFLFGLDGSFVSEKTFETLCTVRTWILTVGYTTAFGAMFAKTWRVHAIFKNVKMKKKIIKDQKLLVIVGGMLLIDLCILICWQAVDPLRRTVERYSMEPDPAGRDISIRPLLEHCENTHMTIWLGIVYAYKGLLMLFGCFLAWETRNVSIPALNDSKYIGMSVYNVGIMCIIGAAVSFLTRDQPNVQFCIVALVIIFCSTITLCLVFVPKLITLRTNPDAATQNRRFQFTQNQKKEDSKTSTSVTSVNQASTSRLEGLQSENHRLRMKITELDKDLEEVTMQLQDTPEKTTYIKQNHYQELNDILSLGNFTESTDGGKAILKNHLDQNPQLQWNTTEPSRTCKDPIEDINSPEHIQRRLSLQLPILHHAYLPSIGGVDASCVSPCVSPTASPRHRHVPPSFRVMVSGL

[3] = target: Gamma-aminobutyric acid receptor subunit rho-1 (Homo sapiens) (UniProt P24046); assay: Inhibition of inward current in oocytes expressing human GABA-C receptor rho1 subunit (No inhibition); format: cell-based; details: Oocyte
Chain of Gamma-aminobutyric acid receptor subunit rho-1 (Homo sapiens) (P24046 whole entry): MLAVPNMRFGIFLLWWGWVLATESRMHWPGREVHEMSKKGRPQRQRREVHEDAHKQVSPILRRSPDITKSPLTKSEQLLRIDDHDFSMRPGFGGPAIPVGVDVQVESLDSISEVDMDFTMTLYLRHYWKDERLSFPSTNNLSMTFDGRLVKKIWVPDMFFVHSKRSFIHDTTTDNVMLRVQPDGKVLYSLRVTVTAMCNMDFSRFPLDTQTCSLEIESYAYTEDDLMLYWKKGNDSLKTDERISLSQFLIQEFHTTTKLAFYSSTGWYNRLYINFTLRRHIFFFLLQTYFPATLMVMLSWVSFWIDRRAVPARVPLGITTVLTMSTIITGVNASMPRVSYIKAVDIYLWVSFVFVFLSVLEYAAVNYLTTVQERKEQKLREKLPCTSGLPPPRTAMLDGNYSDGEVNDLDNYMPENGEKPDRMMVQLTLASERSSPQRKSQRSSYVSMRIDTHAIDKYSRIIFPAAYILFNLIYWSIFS

[4] = target: Gamma-aminobutyric acid receptor subunit rho-1 (Homo sapiens) (UniProt P24046); assay: Inhibition of inward current in oocytes expressing human GABA-C receptor rho1 subunit; format: cell-based; details: Oocyte

Row | SMILES | logD [1] | pKa [2] | IC50 (GABA B receptor) [µM] | Kb [3] | Log KB [4]
1 | NCCCC(=O)O [GAMMA-AMINOBUTYRIC ACID] | -3.1 | – | – | – | –
2 | NCc1cc(F)c(O)c(F)c1 | -1.7 | 6.98 | > 1000 | 75.5 µM | -4.12
3 | CP(=O)(O)C1=CCNCC1 | -3.7 | – | – | – | –
4 | NCc1ccc(F)c(O)c1F | -1.7 | 6.52 | > 1000 | inactive | –
